Data on 26 compounds can be found in patent publication US20080234262A1 (Wyeth, priority 2007, published 2008).

For orientation: IC50 means the concentration that gives 50% inhibition.

One experiment has as its system prostate line LNCap. The experiment in a line: In vitro cell culture growth assay (MTS), LNCap. The class given is cell-based, human. The following applies: Homo sapiens, LNCaP, 72 h, LNCap cells, three days after drug treatment.
In the next experiment the target is PI3K (Homo sapiens, UniProt P42336). Briefly: Fluorescence polarization assay for PI3K.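 Also: PI3K kinase reaction on PIP2 with ATP, 30-60 min, product sensed by GST-GRP with red probe in fluorescence polarization (mP), controls without enzyme and at zero time.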 The conditions noted are these: PI3Kα; read-out: PI3Kα IC50. The experiment is classed as biochemical. For orientation: Polarisation of emitted light reports the rotation of a fluorescent probe.
Sequence of PI3K (P42336 whole entry): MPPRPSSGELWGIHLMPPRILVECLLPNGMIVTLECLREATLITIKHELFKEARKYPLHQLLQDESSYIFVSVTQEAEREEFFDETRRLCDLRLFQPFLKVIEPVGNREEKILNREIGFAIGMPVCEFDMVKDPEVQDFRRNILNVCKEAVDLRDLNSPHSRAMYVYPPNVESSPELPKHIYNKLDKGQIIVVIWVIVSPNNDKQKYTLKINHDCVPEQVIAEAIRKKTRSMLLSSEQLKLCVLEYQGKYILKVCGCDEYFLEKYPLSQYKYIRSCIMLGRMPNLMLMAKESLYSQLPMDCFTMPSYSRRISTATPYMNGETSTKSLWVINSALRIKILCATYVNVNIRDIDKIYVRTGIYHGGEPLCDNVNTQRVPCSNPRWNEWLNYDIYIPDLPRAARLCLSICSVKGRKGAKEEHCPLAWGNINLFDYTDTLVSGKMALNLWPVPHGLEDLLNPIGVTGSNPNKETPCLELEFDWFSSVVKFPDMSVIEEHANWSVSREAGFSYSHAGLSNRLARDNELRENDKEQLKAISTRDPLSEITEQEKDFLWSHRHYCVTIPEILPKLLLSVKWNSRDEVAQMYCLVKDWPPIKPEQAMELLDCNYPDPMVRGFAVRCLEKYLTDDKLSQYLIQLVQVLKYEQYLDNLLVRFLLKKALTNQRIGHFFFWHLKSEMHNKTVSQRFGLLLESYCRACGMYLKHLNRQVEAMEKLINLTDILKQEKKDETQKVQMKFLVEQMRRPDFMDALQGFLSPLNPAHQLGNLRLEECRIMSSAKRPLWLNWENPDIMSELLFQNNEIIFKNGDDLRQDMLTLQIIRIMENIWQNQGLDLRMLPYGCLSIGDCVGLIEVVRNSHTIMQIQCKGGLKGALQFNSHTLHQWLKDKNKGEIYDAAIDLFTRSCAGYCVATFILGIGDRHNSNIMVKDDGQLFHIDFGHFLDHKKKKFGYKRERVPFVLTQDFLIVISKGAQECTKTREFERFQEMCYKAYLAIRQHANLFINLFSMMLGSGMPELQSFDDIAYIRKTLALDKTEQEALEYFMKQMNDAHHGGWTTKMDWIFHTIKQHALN
Sequence of PI3K (P27986 whole entry partner): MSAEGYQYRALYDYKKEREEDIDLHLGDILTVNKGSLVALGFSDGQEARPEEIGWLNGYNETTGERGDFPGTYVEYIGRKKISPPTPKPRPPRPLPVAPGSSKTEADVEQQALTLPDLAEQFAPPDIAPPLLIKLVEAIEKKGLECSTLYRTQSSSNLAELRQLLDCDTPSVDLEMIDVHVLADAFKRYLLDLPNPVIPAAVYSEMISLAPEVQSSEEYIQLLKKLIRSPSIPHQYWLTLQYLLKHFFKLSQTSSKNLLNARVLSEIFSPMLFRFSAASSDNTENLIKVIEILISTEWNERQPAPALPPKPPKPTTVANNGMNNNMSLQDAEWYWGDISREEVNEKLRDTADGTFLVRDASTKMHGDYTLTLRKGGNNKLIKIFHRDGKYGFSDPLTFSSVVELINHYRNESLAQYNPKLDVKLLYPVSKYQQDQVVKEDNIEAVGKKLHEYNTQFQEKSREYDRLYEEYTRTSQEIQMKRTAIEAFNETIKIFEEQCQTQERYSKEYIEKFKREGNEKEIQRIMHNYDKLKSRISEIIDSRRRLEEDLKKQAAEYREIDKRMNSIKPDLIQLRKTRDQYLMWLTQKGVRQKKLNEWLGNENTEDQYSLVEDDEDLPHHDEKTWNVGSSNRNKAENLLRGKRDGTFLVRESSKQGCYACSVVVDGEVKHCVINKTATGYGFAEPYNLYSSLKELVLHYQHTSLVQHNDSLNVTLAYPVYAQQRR
Another experiment relates to breast line MDA468. Briefly: In vitro cell culture growth assay (MTS), MDA468. The class given is cell-based, human. The conditions noted are these: Homo sapiens, 72 h, MDA468 cells, three days after drug treatment. A digest of the protocol:
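Cells were plated and, one day later, exposed to inhibitors for three days; viable cell density was then measured by metabolic conversion of MTS dye, read as absorbance at 490 nm. Growth is expressed as percent of vehicle-treated control cells on the same plate.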

As for `O=C(NCCCc1ccccc1)Nc1ccc(-c2nc(N3CCOCC3)c3cnn(C4CCN(Cc5ccccc5)CC4)c3n2)cc1` [Compound 260, 1-{4-[1-(1-benzylpiperidin-4-yl)-4-morpholin-4-yl-1H-pyrazolo[3,4-d]pyrimidin-6-yl]phenyl}-3-(3-phenylpropyl)urea], the IC50 in the experiment with prostate line LNCap was 4.5 µM; on PI3K, 7.03 µM; in the experiment with breast line MDA468, 60 µM.

For the compound `COCCCNC(=O)Nc1ccc(-c2nc(N3CCOCC3)c3cnn(C4CCN(Cc5ccccc5)CC4)c3n2)cc1` [Compound 270, 1-{4-[1-(1-benzylpiperidin-4-yl)-4-morpholin-4-yl-1H-pyrazolo[3,4-d]pyrimidin-6-yl]phenyl}-3-(3-methoxypropyl)urea], the IC50 with prostate line LNCap came to 0.6 µM; on PI3K it was 0.753 µM; in the experiment on breast line MDA468, 3.2 µM.

Take `CN(C)CCCNC(=O)Nc1ccc(-c2nc(N3CCOCC3)c3cnn(C4CCN(Cc5ccccc5)CC4)c3n2)cc1` [Compound 271, 1-{4-[1-(1-benzylpiperidin-4-yl)-4-morpholin-4-yl-1H-pyrazolo[3,4-d]pyrimidin-6-yl]phenyl}-3-[3-(dimethylamino)propyl]urea]: the IC50 in the experiment with prostate line LNCap came to 0.65 µM; on PI3K, 0.158 µM; in the experiment on breast line MDA468, 2 µM.

Regarding `COc1cccc(C(=O)Nc2ccc(-c3nc(N4CCOCC4)c4cnn(C5CCCCO5)c4n3)cc2)c1` (stereo not drawn) [Compound 273, 3-methoxy-N-{4-[4-morpholin-4-yl-1-(tetrahydro-2H-pyran-2-yl)-1H-pyrazolo[3,4-d]pyrimidin-6-yl]phenyl}benzamide], the IC50 came out at 1.95 µM in the experiment on prostate line LNCap, 8.32 µM at PI3K and 60 µM with breast line MDA468.

With `CN(C)CC(=O)Nc1ccc(-c2nc(N3CCOCC3)c3cnn(C4CCCCO4)c3n2)cc1` (stereo not drawn) [Compound 275], the IC50 in the experiment on prostate line LNCap is 12 µM; on PI3K, 9 µM; with breast line MDA468, 40 µM.

For the compound `CN(C)c1ccc(CC(=O)Nc2ccc(-c3nc(N4CCOCC4)c4cnn(C5CCCCO5)c4n3)cc2)cc1` (stereo not drawn) [Compound 276, 2-[4-(dimethylamino)phenyl]-N-{4-[4-morpholin-4-yl-1-(tetrahydro-2H-pyran-2-yl)-1H-pyrazolo[3,4-d]pyrimidin-6-yl]phenyl}acetamide], the concentration for half-maximal inhibition (IC50) in the experiment on prostate line LNCap turned out to be 11 µM; on PI3K, 6.47 µM; in the experiment on breast line MDA468, 60 µM.

In the case of `O=C(Nc1ccc(-c2nc(N3CCOCC3)c3cn[nH]c3n2)cc1)c1cccnc1` [Compound 278, N-[4-(4-morpholin-4-yl-1H-pyrazolo[3,4-d]pyrimidin-6-yl)phenyl]nicotinamide], the half-inhibitory concentration (IC50) with prostate line LNCap stood at 7.2 µM; on PI3K, 1.17 µM; in the experiment on breast line MDA468, 60 µM.

For `COC(=O)Nc1ccc(-c2nc(N3CCOCC3)c3cn[nH]c3n2)cc1` [Compound 279, methyl [4-(4-morpholin-4-yl-1H-pyrazolo[3,4-d]pyrimidin-6-yl)phenyl]carbamate], the figures for the IC50 with prostate line LNCap, on PI3K and in the experiment with breast line MDA468 were 3 µM, 0.612 µM and 12 µM, respectively.

As for `C=CC(=O)Nc1ccc(-c2nc(N3CCOCC3)c3cn[nH]c3n2)cc1` [Compound 280, N-[4-(4-morpholin-4-yl-1H-pyrazolo[3,4-d]pyrimidin-6-yl)phenyl]acrylamide], the IC50 came out at 3.4 µM in the experiment with prostate line LNCap, 0.601 µM at PI3K and 7 µM in the experiment on breast line MDA468.

As to `CN(C)CC(=O)Nc1ccc(-c2nc(N3CCOCC3)c3cn[nH]c3n2)cc1` [Compound 281, N~2~,N~2~-dimethyl-N-[4-(4-morpholin-4-yl-1H-pyrazolo[3,4-d]pyrimidin-6-yl)phenyl]glycinamide], the half-maximal inhibitory concentration (IC50) in the experiment with prostate line LNCap was determined as 7 µM; at PI3K, 2.27 µM; with breast line MDA468 it was 18 µM.

In the case of `NCC(=O)Nc1ccc(-c2nc(N3CCOCC3)c3cn[nH]c3n2)cc1` [Compound 282, N-[4-(4-morpholin-4-yl-1H-pyrazolo[3,4-d]pyrimidin-6-yl)phenyl]glycinamide], the half-maximal inhibitory concentration (IC50) turned out to be 9 µM with prostate line LNCap, 0.128 µM on PI3K and 11 µM in the experiment on breast line MDA468.

For `NCCC(=O)Nc1ccc(-c2nc(N3CCOCC3)c3cn[nH]c3n2)cc1` [Compound 283], the IC50 in the experiment with prostate line LNCap was found to be 1.5 µM; on PI3K, 0.203 µM; in the experiment with breast line MDA468, 13 µM.

As to `CN1CCC(C(=O)Nc2ccc(-c3nc(N4CCOCC4)c4cn[nH]c4n3)cc2)CC1` [Compound 284, 1-methyl-N-[4-(4-morpholin-4-yl-1H-pyrazolo[3,4-d]pyrimidin-6-yl)phenyl]piperidine-4-carboxamide], the IC50 in the experiment with prostate line LNCap is 5.3 µM; on PI3K it was 0.885 µM; in the experiment with breast line MDA468, 22 µM.

As to `O=C(Nc1ccc(-c2nc(N3CCOCC3)c3cnn(C4CCN(Cc5ccccc5)CC4)c3n2)cc1)NN1CCCC1` [Compound 291, 1-{4-[1-(1-benzylpiperidin-4-yl)-4-morpholin-4-yl-1H-pyrazolo[3,4-d]pyrimidin-6-yl]phenyl}-3-pyrrolidin-1-ylurea], the IC50 in the experiment with prostate line LNCap came out at 3 µM; at PI3K, 4.23 µM; with breast line MDA468, 10 µM.

For the compound `CONC(=O)Nc1ccc(-c2nc(N3CCOCC3)c3cnn(-c4ccccc4)c3n2)cc1` [Compound 295, 1-methoxy-3-[4-(4-morpholin-4-yl-1-phenyl-1H-pyrazolo[3,4-d]pyrimidin-6-yl)phenyl]urea], the IC50 in the experiment with prostate line LNCap turned out to be 1.8 µM; at PI3K it was 0.404 µM; with breast line MDA468 it was 5 µM.

As for `C=CCONC(=O)Nc1ccc(-c2nc(N3CCOCC3)c3cnn(-c4ccccc4)c3n2)cc1` [Compound 296, 1-(allyloxy)-3-[4-(4-morpholin-4-yl-1-phenyl-1H-pyrazolo[3,4-d]pyrimidin-6-yl)phenyl]urea], the IC50 turned out to be 3 µM in the experiment on prostate line LNCap, 0.896 µM at PI3K and 60 µM in the experiment with breast line MDA468.

For `O=C(NO)Nc1ccc(-c2nc(N3CCOCC3)c3cnn(C4CCN(Cc5ccccc5)CC4)c3n2)cc1` [Compound 310, 1-{4-[1-(1-benzylpiperidin-4-yl)-4-morpholin-4-yl-1H-pyrazolo[3,4-d]pyrimidin-6-yl]phenyl}-3-hydroxyurea], the IC50 in the experiment with prostate line LNCap worked out at 0.1 µM; on PI3K, 0.199 µM; in the experiment on breast line MDA468 it was 1.1 µM.

For the compound `C#CCNC(=O)Nc1ccc(-c2nc(N3CCOCC3)c3cnn(C4CCN(Cc5ccccc5)CC4)c3n2)cc1` [Compound 312, 1-{4-[1-(1-benzylpiperidin-4-yl)-4-morpholin-4-yl-1H-pyrazolo[3,4-d]pyrimidin-6-yl]phenyl}-3-prop-2-yn-1-ylurea], the figures for the IC50 in the experiment with prostate line LNCap, at PI3K and in the experiment with breast line MDA468 were 0.4 µM, 0.173 µM and 3.9 µM, respectively.

Take `O=C(NO)Nc1ccc(-c2nc(N3CCOCC3)c3cnn(C4CCN(Cc5cccnc5)CC4)c3n2)cc1` [Compound 317, 1-hydroxy-3-(4-{4-morpholin-4-yl-1-[1-(pyridin-3-ylmethyl)piperidin-4-yl]-1H-pyrazolo[3,4-d]pyrimidin-6-yl}phenyl)urea]: the IC50 in the experiment with prostate line LNCap is 1.1 µM; on PI3K it was 0.259 µM; in the experiment on breast line MDA468, 1.5 µM.

For `Nc1ccc(-c2nc(N3CCOCC3)c3cnn(C4CCC5(CC4)OCCO5)c3n2)cc1` [Compound 320, 4-[1-(1,4-dioxaspiro[4.5]dec-8-yl)-4-morpholin-4-yl-1H-pyrazolo[3,4-d]pyrimidin-6-yl]aniline], the IC50 in the experiment with prostate line LNCap worked out at 1.1 µM; on PI3K, 2.05 µM; with breast line MDA468 it was 7.2 µM.

Turning to `Nc1ccc(-c2nc(N3CCOCC3)c3cnn(C4CCN(Cc5ccccc5)CC4)c3n2)cc1F` [Compound 347, 4-[1-(1-benzylpiperidin-4-yl)-4-morpholin-4-yl-1H-pyrazolo[3,4-d]pyrimidin-6-yl]-2-fluoroaniline], the IC50 was determined as 2 µM in the experiment on prostate line LNCap, 1.65 µM on PI3K and 4 µM with breast line MDA468.

Regarding `O=C(Nc1ccncc1)Nc1ccc(-c2nc(N3CCOCC3)c3cnn(C4CCN(Cc5cccnc5)CC4)c3n2)cc1F` [Compound 352, 1-(2-fluoro-4-{4-morpholin-4-yl-1-[1-(pyridin-3-ylmethyl)piperidin-4-yl]-1H-pyrazolo[3,4-d]pyrimidin-6-yl}phenyl)-3-pyridin-4-ylurea], the IC50 worked out at 0.027 µM in the experiment on prostate line LNCap, 0.035 µM on PI3K and 0.1 µM with breast line MDA468.

Regarding `O=C(Nc1ccc(-c2nc(N3CCOCC3)c3cnn(C4CCN(Cc5cccnc5)CC4)c3n2)cc1)Nc1ccsc1` [Compound 375, 1-(4-{4-morpholin-4-yl-1-[1-(pyridin-3-ylmethyl)piperidin-4-yl]-1H-pyrazolo[3,4-d]pyrimidin-6-yl}phenyl)-3-(3-thienyl)urea], the IC50 came to 0.034 µM in the experiment on prostate line LNCap, 0.01 µM at PI3K and 0.1 µM with breast line MDA468.

Consider `CNC(=O)Nc1ccc(-c2nc(N3CCOCC3)c3cnn(C4CCN(C)CC4)c3n2)cc1` [Compound 401, 1-methyl-3-{4-[1-(1-methylpiperidin-4-yl)-4-morpholin-4-yl-1H-pyrazolo[3,4-d]pyrimidin-6-yl]phenyl}urea], for which the IC50 was 1 µM in the experiment on prostate line LNCap, 0.211 µM at PI3K and 3.8 µM in the experiment with breast line MDA468.

With `CNC(=O)Nc1ccc(-c2nc(N3CCOCC3)c3cnn(C4CCN(C(=O)c5cccnc5Cl)CC4)c3n2)cc1` [Compound 425, 1-[4-(1-{1-[(2-chloropyridin-3-yl)carbonyl]piperidin-4-yl}-4-morpholin-4-yl-1H-pyrazolo[3,4-d]pyrimidin-6-yl)phenyl]-3-methylurea], the half-maximal inhibitory concentration (IC50) was 0.08 µM with prostate line LNCap, 0.1 µM at PI3K and 0.5 µM with breast line MDA468.

With `CNC(=O)Nc1ccc(-c2nc(N3CCOCC3)c3cnn(C4CCN(Cc5ccncc5)CC4)c3n2)cc1` [Compound 426, 1-methyl-3-(4-{4-morpholin-4-yl-1-[1-(pyridin-4-ylmethyl)piperidin-4-yl]-1H-pyrazolo[3,4-d]pyrimidin-6-yl}phenyl)urea], the IC50 with prostate line LNCap is 0.06 µM; on PI3K it was 0.112 µM; in the experiment with breast line MDA468 it was 0.7 µM.
